We go through 44 compounds from PubChem BioAssay (NCI).

Several values for one entry are separate records, joined by “and”; a condition that tells them apart may be missing. Equal values may be shown once.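 Five concentrations, 48 hours, 96-well plates. GI50 marks 50% less growth. TGI marks complete inhibition of growth.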

The assay deals with MDA-MB-468 breast. Briefly: NCI tumour cell line growth inhibition, 48 h.

Consider `Cc1cc(Cc2cc(C)cc(C(C)(C)C)c2O)c(O)c(C(C)(C)C)c1`, for which the GI50 was 11.4 µM and the TGI came to 24.2 µM.
The corresponding values for `Cn1cc(-c2cnc3ccc4ccc(CS(=O)(=O)NCc5ccccn5)cc4c(=O)c3c2)cn1` are 10.9 µM and 29 µM.
Take `Cc1c(C)[n+](=O)c(C)c(C)n1[O-]`: the GI50 is above 100 µM and the TGI is above 100 µM.
For the compound `COc1ccc2nc3cc(Cl)ccc3c(NCCCNCCC(C)O)c2c1` (stereo not drawn), the GI50 was 0.313 µM and the TGI is 1.78 µM.
For `C=C1C(=O)O[C@H]2[C@H]1CC/C(COC(=O)CSCC(=O)OC/C1=C/CC[C@@]3(C)O[C@H]3[C@H]3OC(=O)C(=C)[C@@H]3CC1)=C\CC[C@@]1(C)O[C@@H]21`, the GI50 is 1.42 µM and the TGI amounted to 3.5 µM.
The corresponding values for `COc1cc(/C=C2\CN(C)C/C(=C\c3cc(CN4CCCCC4)c(O)c(OC)c3)C2=O)cc(CN2CCCCC2)c1O` are 3.79 µM and 14.7 µM.
Taken in the same sequence, the figures for `O=c1cc(-c2ccccc2)[nH]n1-c1nc2ccccc2[nH]1` were 4.3 µM and 45.9 µM.
The corresponding values for `COc1ccc(C(=O)c2cc3c(OC)c(OC)c(OC)cc3[nH]2)cc1` are 2.64 µM and above 100 µM.
Consider `CN(C)C(=O)c1cc2cnc(Nc3ccc(-c4csc5c(=O)cc(N6CCOCC6)oc45)cc3)nc2n1C1CCCC1`, for which the GI50 was 0.122 µM and the TGI came to 0.397 µM.
As to `O=C(Nc1ccc(Cl)c(C(F)(F)F)c1)Nc1ccc2c(ccn2C(=O)c2cccc(F)c2)c1`, the GI50 was 1.83 µM and the TGI amounted to 4.96 µM.
Turning to `Cc1cc(Nc2ncnc3ccc(NC4=NC(C)(C)CO4)cc23)ccc1Oc1ccn2ncnc2c1`, the GI50 is 1.78 µM and 2.18 µM; the TGI is 12.7 µM and > 10 µM.
For `O=C(N/N=C/c1ccccc1O)C(=O)Nc1ccc(F)cc1`, the GI50 is 4.41 µM and the TGI is above 100 µM.
On to `Cc1c2c[n+](C(C)C)ccc2c(C)c2c1[nH]c1ccccc12`, for which the GI50 is 0.312 µM and the TGI came out at 1.97 µM.
Taken in the same sequence, the figures for `COc1cccc2c1C(=O)c1c(O)c3c(c(O)c1C2=O)C[C@@](O)(C(=O)CO)C[C@@H]3OC1C[C@H](N)[C@H](O)[C@H](C)O1` (stereo partly drawn) were 0.0253 µM and 0.123 µM.
`O=C(Cc1cccc(OC(F)(F)F)c1)Nc1ccc(CCCCc2nnc(NC(=O)Cc3ccccn3)s2)nn1`: the GI50 was 7.69 µM and the TGI was determined as 58.5 µM.
Take `COC(=O)[C@]12CC[C@@H](C)[C@H](C)[C@@H]1C1=CC[C@@H]3[C@@]4(C)C=C(O)C(=O)[C@@]5(C)COC(=C54)C[C@@]3(C)[C@]1(C)CC2`: the GI50 was 4.88 µM and the TGI worked out at 19.9 µM.
Consider `Cc1cc(C)c(O)c(CN(C)Cc2cc(Cl)cc(Cl)c2O)c1`, for which the GI50 was 2.83 µM and the TGI came to 11.8 µM.
`O=Nc1ccc2ccccc2c1O`: the GI50 is 13.4 µM and the TGI was found to be 34.9 µM.
Regarding `O=c1[nH]cnc2[nH]ncc12`, the GI50 is 152 µM and the TGI was found to be 2680 µM.
The corresponding values for `C=C1C(=O)O[C@H]2[C@H]1CC/C(COC(=O)NCCc1c[nH]c3ccc(OC)cc13)=C\CC[C@@]1(C)O[C@@H]21` are 1.19 µM and 2.91 µM.
As for `C=CC(=O)N[C@H]1CCOC[C@H]1Nc1ncc2cc(-c3c(Cl)c(OC)cc(OC)c3Cl)ccc2n1`, the GI50 is 9.16 µM and the TGI was 44.7 µM.
Taken in the same sequence, the figures for `COc1ccc2c(c1)C(=O)/C(=C/c1ncc([N+](=O)[O-])n1C)O2` were 1.7 µM and 4.12 µM.
Consider `CCCCCCCCCCCCSC(=N)N`, for which the GI50 is 6.21 µM and the TGI amounted to 20.5 µM.
The corresponding values for `COc1cc(-c2nc3sc4c(c3c(=O)[nH]2)CCCCCC4)cc(OC)c1OC` are 0.676 µM and 3.01 µM.
The corresponding values for `CC(=O)O/N=C1/C(c2c(O)[nH]c3cc(Br)ccc23)=Nc2ccccc21` are 1.64 µM and 3.22 µM.
The corresponding values for `CN1CCN(Cc2ccc(NC(=O)c3ccc(C#Cc4c(N)ncc5ccc(F)cc45)cc3)cc2C(F)(F)F)CC1` are 0.998 µM and 1.97 µM.
Consider `CCN1c2ccccc2C(Cl)(c2ccc(N(C)C)cc2)c2ccccc21`, for which the GI50 was 3.36 µM and the TGI amounted to 15.5 µM.
Taken in the same sequence, the figures for `N#CCc1ncc(-c2ccc(C(F)(F)F)cc2)c(NC2CCCCCC2)n1` were above 10 µM and above 10 µM.
Taken in the same sequence, the figures for `NC1=NC(c2ccc(Cl)cc2)C2=C(N1)/C(=C/c1ccc(Cl)cc1)CCC2` (stereo not drawn) were 3.49 µM and 13.9 µM.
The corresponding values for `C#CC(F)(F)[C@]1(O)CC[C@H]2[C@@H]3CCC4=CC(=O)CCC4=C3[C@@H](c3ccc(C(C)=O)cc3)C[C@@]21C` are 7.69 µM and 34.1 µM.
`COc1ccccc1/C=N\N=C(N/N=C/c1ccccc1OC)N/N=C/c1ccccc1OC`: the GI50 is 3.51 µM and the TGI worked out at 10.7 µM.
As for `COc1ccc(Cl)cc1NC(=O)C(Br)C(Br)C(=O)O` (stereo not drawn), the GI50 was 0.567 µM and the TGI is 2.27 µM.
As to `O=C(CCl)N1c2ccccc2Sc2ccc3ccccc3c21`, the GI50 is 0.351 µM and the TGI was 1.46 µM.
The corresponding values for `CC(C)NC(=O)OCc1c(COC(=O)NC(C)C)c(-c2ccc(Cl)cc2)n2c1CCC2` are 0.928 µM and 2.5 µM.
Taken in the same sequence, the figures for `O=C(Nc1ccccc1O)c1ccc(Oc2cccc(C(=O)Nc3ccccc3O)c2)cc1` were 2.17 µM and 8.16 µM.
The corresponding values for `O=C(N/N=C/c1ccc([N+](=O)[O-])cc1)c1ccc2nc(-c3ccc(Cl)cc3)[nH]c2c1` are 1.97 µM and 4.79 µM.
Take `CSc1ccc2c3c(n(C[C@H](O)CO)c(=O)c2c1)-c1ccccc1C3=O`: the GI50 was 1.87 µM and the TGI amounted to 5.78 µM.
`O=C(O)c1cc2cc(OCc3ccccc3)c(OCc3ccccc3)cc2[nH]1`: the GI50 is 17.9 µM and the TGI was 36.7 µM.
`O=C(Nc1ccc(Cl)cc1)c1cc(-c2ccc(Cl)cc2)c2sc(=O)[nH]c2n1`: the GI50 was 1.73 µM and the TGI came out at 6.62 µM.
The corresponding values for `C/C=C/CC(C)C(O)C1C(=O)NC(CC)C(=O)N(C)CC(=O)N(C)C(CC(C)C)C(=O)NC(C(C)C)C(=O)N(C)C(CC(C)C)C(=O)NC(C)C(=O)NC(C)C(=O)N(C)C(CC(C)C)C(=O)N(C)C(CC(C)C)C(=O)N(C)C(C(C)C)C(=O)N1C` (stereo not drawn) are 0.872 µM and 6.63 µM.
As to `CCOP(=O)(OCC)OC[C@]12CCC(C)(C)C[C@H]1C1=CC[C@@H]3[C@@]4(C)C/C(=C\c5cccnc5)[C@H](OP(=O)(OCC)OCC)C(C)(C)[C@@H]4CC[C@@]3(C)[C@]1(C)CC2`, the GI50 is 1.12 µM and the TGI turned out to be 2.5 µM.
`COc1ccc2c(c1)C(c1ccccc1Cl)=Nc1c(n[nH]c1C)N2`: the GI50 is above 16.8 µM and the TGI is above 25 µM.
Taken in the same sequence, the figures for `c1cn2cc(-c3ccc4cn[nH]c4c3)nc(Nc3ccc(N4CCOCC4)cc3)c2n1` were 8.59 µM and 32.4 µM.
For `NS(=O)(=O)c1cccc(N=Cc2c(O)[nH]c3ccccc23)c1`, the GI50 was above 25 µM and the TGI is above 25 µM.
